Experiments:
[1] = system: THBD in primary human bronchial epithelial (HBE) cells; assay: Gene expression profiling of erlotinib-induced senescent versus proliferating HBE cells; format: cell-based
Excerpt: Cell Res, 2018. 28(6): p. 625-643; Xiang, H., et al., UHRF1 is required for basal stem cell proliferation in response to airway injury. Cell Discov, 2017. 3: p. […] Cell Res, 2018. 28(6): p. 625-643).

NSCLC = details: monotherapy for NSCLC; cited from earlier work
HCC827 and H1650 cells = assay: Cleaved caspase-3 immunoblot in proliferating or palbociclib-treated senescent NSCLC cells treated with PAR1 inhibitors; format: cell-based, human; details: for caspase-3 cleavage: HCC827 and H1650, palbociclib (0.5 μM, 7 days)-treated senescent cells, increasing doses of PAR1 inhibitor
Method: Because THBD is thought to signal primarily through PAR1, it was first tested whether, like THBD depletion, pharmacological PAR1 inhibition results in senescent cell death. For this, proliferating or palbociclib-treated senescent HCC827 and H1650 cells were treated with increasing doses of vorapaxar or SCH79797 and immunoblotted for cleaved caspase-3.

MDA-MB-231 cells = assay: Cleaved caspase-3 immunoblot in proliferating and palbociclib-induced senescent MDA-MB-231 cells treated with vorapaxar; format: cell-based
Method: Proliferating and palbociclib-induced senescent MDA-MB-231 cells were treated with increasing doses of vorapaxar. Following treatment, cells were immunoblotted for cleaved caspase-3.

C#Cc1cccc(Nc2ncnc3cc(OCCOC)c(OCCOC)cc23)c1 [erlotinib]
THBD gene expression in senescent versus proliferating cells [1]: four-fold increase

CC(=O)c1c(C)c2cnc(Nc3ccc(N4CCNCC4)cn3)nc2n(C2CCCC2)c1=O [palbociclib]
adverse side effects (NSCLC): neutropenia and leukopenia

CC(C)c1ccc(Cn2ccc3c4c(N)nc(NC5CC5)nc4ccc32)cc1 [SCH79797]
caspase-3 cleavage (HCC827 and H1650 cells): dose-dependent increase

CCOC(=O)N[C@@H]1CC[C@@H]2[C@@H](C1)C[C@H]1C(=O)O[C@H](C)[C@H]1[C@H]2/C=C/c1ccc(-c2cccc(F)c2)cn1 [vorapaxar]
caspase-3 cleavage, senescent cells (MDA-MB-231 cells; palbociclib-induced senescent MDA-MB-231, increasing doses of vorapaxar (50 nM-1 μM), 24 h): dose-dependent increase
caspase-3 cleavage, proliferating cells (MDA-MB-231 cells; proliferating MDA-MB-231, increasing doses of vorapaxar): minimal increase
caspase-3 cleavage (HCC827 and H1650 cells): dose-dependent increase
lowest dose inducing caspase-3 cleavage (HCC827 and H1650 cells; combined with palbociclib): 25 nM

Source: patent US20210161900A1, “COMPOSITIONS AND METHODS FOR THE TREATMENT OF SENESCENT TUMOR CELLS” (Duke University, priority 2018, published 2021)
